Test results reported in PMC10418939, “Synthesis, ^123I-Radiolabeling Optimization, and Initial Preclinical Evaluation of Novel Urea-Based PSMA Inhibitors with a Tributylstannyl Prosthetic Group in Their Structures” (International Journal of Molecular Sciences, 2023).
Where two headings read alike, the source gives them in different places.

Columns and labels:
[1] = NCr nude mice bearing LNCaP xenografts, cited from earlier work; for accumulation in the liver: 4 h after injection; for accumulation in the kidney: after 4 h
Excerpt: The uptake of [^123I]PSMA-p-IB in normal organs, except in the salivary gland, gastrointestinal tract, and body, were low. […] This value was correlated with PSMA-p-IB that had been ^123I-labeled, which is non-residualizi ...

[2] = In vivo biodistribution in normal mice; design: activity in the whole gastrointestinal tract (with contents): unit not given here; conditions: female CD1 mice, i.v. tail vein, 80 pmol, 4 h p.i.
Procedure: The mice were sacrificed at 4 h post-injection (p.i.) by cervical dislocation. A side-by-side comparison of the biodistribution of [^123I]PSMA-p-IB and [^177Lu]Lu-PSMA-617 in normal mice is shown in Figure 11. Biodistribution of [^123I]PSMA-p-IB at 4 h p.i. in CD1 mice reflects a low level of accumulation in almost all normal organs, except in the salivary gland, gastrointestinal tract, and the rest of the body. There were significant differences between the uptake of [^123I]PSMA-p-IB and [^177Lu]Lu-PSMA-617 in several normal organs. Low accumulation of both ligands was detected in muscle and bone. However, it was determined that the uptake of [^177Lu]Lu-PSMA-617 in muscle (0.1 ± 0.1 %ID/g) was noticeably lower than that of [^123I]PSMA-p-IB (0.2 ± 0.0 %ID/g). […] The activity of [^123I]PSMA-p-IB in blood was 1.3 ± 0.5 %ID/g. […] The activity in the blood for [^123I]PSMA-p-IB experiment was associated with […] labeled with ^123I, which is non-residualizing and is thought to result in the rapid excretion of radiometabolites. Additionally, this ligand lipophilicity might lead it to bind to proteins in the blood. […] This value was clearly higher than the [^177Lu]Lu-PSMA-617 accumulation in the same organ of 0.1 ± 0.0 %ID/g. This [^123I]PSMA-p-IB accumulation could be due to radioiodine catabolites. The activity in the whole gastrointestinal tract (with contents) and small intestine for [^123I]PSMA-p-IB was 12.4 ± 0.8 and 1.1 ± 0.2 %ID/g, respectively. Meanwhile, the activity of [^177Lu]Lu-PSMA-617 in the whole gastrointestinal tract (with contents) and small intestine was 1.2 ± 0.8 and 0.2 ± 0.1 %ID/g, respectively.
Remarkable results were observed whereby the accumulation of [^123I]PSMA-p-IB (0.9 ± 0.1 %ID/g) in the liver was substantially lower than that of [^177Lu]Lu-PSMA-617 (2.3 ± 0.2 %ID/g).
The biodistribution of [^123I]PSMA-p-IB and [^177Lu]Lu-PSMA-617 in normal mice was evaluated in 8 female CD1 mice (2 groups) of 6 weeks of age with an average weight of 31.8 ± 3.6 g. The mice were housed and cared for under standard conditions prior to use. Four mice were each injected intravenously through the tail vein with 40 kBq (80 pmol) of [^123I]PSMA-p-IB in 100 μL PBS with 10% ethanol. The remaining 4 mice were intravenously (i.v.) injected with 130 kBq (80 pmol) of [^177Lu]Lu-PSMA-617 in 100 μL PBS with 1% BSA per mouse. The mice were sacrificed 4 h after injection. Cervical dislocation was employed to sacrifice the anesthetized mice. The blood, tissues, and organs (salivary gland, lung, liver, spleen, small intestine, kidney, muscle, and bone) were excised, collected, and weighed. The ^123I and ^177Lu activities were simultaneously measured using a gamma-counter. The activity uptake was expressed as the percentage of injected activity per gram of organ (%ID/g).
Figure 11 Biodistribution of [^123I]PSMA-p-IB and […] in CD1 mice 4 h post-injection (p.i.). Data for the gastrointestinal tract (including the contents) and the body are presented as the %ID per whole sample. ns indicates p > 0.05, * indicates p ≤ 0.05, ** indicates p ≤ 0.01, *** indicates p ≤ 0.001 and **** indicates p ≤ 0.0001. The comparison study was performed by unpaired 2-tailed t-tests (95% confidence interval).

Row | Compound | accumulation in the liver [1] | accumulation in the kidney [1] | accumulation in bone ([2]; n = 4, gamma counter) | accumulation in salivary glands ([2]; n = 4, gamma counter) | accumulation in the liver ([2]; n = 4, gamma counter) | activity in blood ([2]; n = 4, gamma counter) | activity in small intestine ([2]; n = 4, gamma counter) | uptake in muscle ([2]; n = 4, gamma counter) | uptake in the kidney ([2]; n = 4, gamma counter) | activity in the whole gastrointestinal tract (with contents) ([2]; n = 4, Figure 11 legend: %ID per whole sample)
1 | O=C(O)CC[C@H](NC(=O)N[C@@H](CCCCNCc1ccc([123I])cc1)C(=O)O)C(=O)O [[^123I]MIP-1072] | 2.17 ± 0.67 %ID/g | 35.7 ± 18.7 %ID/g | – | – | – | – | – | – | – | –
2 | O=C(O)CC[C@H](NC(=O)N[C@@H](CCCCNC(=O)Nc1ccc([123I])cc1)C(=O)O)C(=O)O [[^123I]MIP-1095] | 7.82 ± 1.01 %ID/g | 77.5 ± 16.5 %ID/g | – | – | – | – | – | – | – | –
3 | [^177Lu]Lu-PSMA-617 | – | – | 0.6 ± 0.1 %ID/g | 0.1 ± 0.0 %ID/g | 2.3 ± 0.2 %ID/g | 0.1 ± 0.0 %ID/g | 0.2 ± 0.1 %ID/g | 0.1 ± 0.1 %ID/g | 6.1 ± 3.7 %ID/g | 1.2 ± 0.8
